Results published in patent US20230241226A1, “COMPOUNDS FOR TARGETED DEGRADATION OF CARRIER PROTEINS AND USES THEREOF” (CeMM - Forschungszentrum für Molekulare Medizin GmbH, priority 2019, published 2023).

Tests used:
SLC9A1 = biological target: T1, SLC9A1 (Homo sapiens, UniProt P19634); test: Degradation of endogenous SLC9A1 (immunoblot); type: cell-based
T1 construct: endogenous in cells; host or cells: HAP1, KBM7 (WT and CRBN knockout)
Method: (B) HAP1 and KBM7 cells were treated with different concentrations of d9A1-2.
(C)Both WT and CRBN knockout KBM7 cell lines were treated with 1 µM d9A1-2 for 16 hours.
(D) Chemical “rescue” of d9A1-2 driven degradation. WT KBM7 cell lines were treated with 0.5 µM d9A1-2 for 16 hours. These cells were also treated with bortezomib (bort. 0.25 µM), MG-132 (MG, 1 µM), MLN4924 (MLN,1 µM), pomalidomide (poma., 1 µM), or bafilomycin A1 (bafi., 10 µM). All molecules, apart from bafilomycin, could rescue SLC9A1 from degradation.
(B) HAP1 cells were treated with a dose curve of the warhead, d9A1-1, d9A1-2, d9A1-3, d9A1-4, for 24 hours.
(C) KBM7 cells were treated with varying concentrations of d9A1-2.
HEK293T, LS180 were obtained from ATCC (Manassas, VA, USA), HAP1 WT, HAP1 -/-SLC38A2 (HZGHC001975c003), HAP1 -/-SLC38A9 (HZGHC000777c011) were obtained from Horizon Genomics. Other cell lines utilized here: CAKI (a gift of Georg Winter’s lab), SW620, SW480 (both a gift from Walter Berger’s lab, Medical University Vienna), LOVO, HCT15 (both a gift from Chris Gasche), KBM7 (a gift from Thijn Brummelkamp’s lab), KBM7 -/- CRBN was described in Mayor-Ruiz et al. Cells were cultured, according to the ATCC recommendation in DMEM, RPMI or IMDM medium (Gibco) supplemented with 10% (v/v) FBS and antibiotics (100 U/ml penicillin and […] streptomycin). Knock-in single cell clones of dTAG-HA SLC38A2 HAP1 cell line were generated as previously described. For starvation, culture media was replaced with media without amino acids or FBS.
For immunoblotting, whole cell extracts were prepared using RIPA lysis buffer (25 mM Tris/HCl pH 7.6, 150 mM NaCl, 1% NP-40, 1% sodium deoxycholate, 0.1% SDS, EDTA-free protease inhibitor (Roche) and phosphatase inhibitors 2+3 (Sigma- Aldrich)). Cell extracts were incubated for 15 min on ice in 50 µL RIPA buffer. Lysates were cleared by centrifugation (20,000 g, 10 min, 4° C.). Protein extracts were quantified and normalized using the BCA assay (Thermo Scientific). Where indicated, cleared lysates where treated with the enzyme PNGase (NEB) to deglycosylate the proteins. Lämmli Sample Buffer 4x was added to protein extract samples without boiling. Cell lysates were run on SDS-polyacrylamide gel in tris-glycine running buffer and transferred to nitrocellulose membranes Amersham Protran 0.45 µm (GE Healthcare), according to standard methods. The membranes were incubated with the antibodies indicated below and visualized with horseradish peroxidase-conjugated secondary antibodies (described below) using the ECL Western blotting system (Thermo Scientific). The following antibodies were used: GAPDH (Santa Cruz, sc-365062), Actin (Cyoskeleton Inc., #AAN01), HA (Covance, cat #MMS-101R), HA (Cell Signaling, #3724), HA7-HRP (Sigma, H6533), HA (Roche, #11867423001), SLC9A1 (Santa Cruz, sc-136239), SLC2A1 (Cell Signaling, #12939), SLC38A1 (Cell Signaling, #36057). Secondary antibody for imaging goat anti-Rat IgG Alexa Fluor 488 (ThermoFisher, A11006). The following secondary antibodies were used for immunoblotting: goat anti-mouse HRP (115-035-003, Jackson ImmunoResearch) and goat anti-rabbit HRP (111-035-003, Jackson ImmunoResearch).
MG132, Bortezomib, Pomalidomide were obtained from Selleckchem. MLN4924 was obtained from MedchemExpress. Bafilomycin was obtained from Enzo Life Sciences. dTAG13 was a generous gift from the Nathanael Gray laboratory, Dana Farber Cancer Institute. The d9A1 degrader series (warhead, d9A1-1 to d9A1-4) was synthesized by Wuxi AppTec. All chemicals were dissolved in DMSO (Sigma-Aldrich) and utilized at the concertation described in respective figures.

Strep/HA SLC9A9 = biological target: T2, Strep/HA SLC9A9 (Homo sapiens, UniProt Q8IVB4); test: Selectivity across SLC9 family: degradation of exogenous Strep/HA SLC9A9; type: cell-based; conditions: HAP1; 250 or 750 nM; 16 hours
T2 construct: expressed in transfected cells; host or cells: HAP1 (lentiviral, pRRL Strep-HA)
Method: (E) Selectivity of d9A1-2 was tested across HAP1 cell lines expressing Strep/HASLC9A1, 9A4, 9A5, 9A8, 9A2, 9B2, 9A6, 9A9, and 9A3. Cells were treated with varying concentrations of d9A1-2 for 16 hours, after which degradation of the exogenous SLCs was monitored.
SLC1A5, SLC2A1, SLC2A3, SLC16A1, SLC38A1, SLC38A2 were obtained as gateway-compatible pENTR/pDONR vectors from the Harvard PlasmID Repository. SLC39A7 was obtained from Dharmacon, GE Healthcare. The following vectors were synthesized by Genescript: SLC4A4, SLC7A3, SLC38A9, SLC25A1, SLC9A1, SLC9A2, SLC9A3, SLC9A4, SLC9A5, SLC9A6, SLC9A7, SLC9A8, and SLC9B2. SLC30A9, SLC33A1, SLC35B2, SLC25A26, and MTCH2 were a gift from the RESOLUTE consortium. cDNAs were transferred into gateway-compatible lentiviral expression vectors: pLX305 dTAG vectors (Addgene #91797/8) or pRRL Strep-HA (described previously43, EF1a promotor driven expression) using LR recombination (ThermoFisher Scientific). […]
For immunoblotting, whole cell extracts were prepared using RIPA lysis buffer (25 mM Tris/HCl pH 7.6, 150 mM NaCl, 1% NP-40, 1% sodium deoxycholate, 0.1% SDS, EDTA-free protease inhibitor (Roche) and phosphatase inhibitors 2+3 (Sigma- Aldrich)). […] Protein extracts were quantified and normalized using the BCA assay (Thermo Scientific). […]

T1 sequence (P19634 whole entry): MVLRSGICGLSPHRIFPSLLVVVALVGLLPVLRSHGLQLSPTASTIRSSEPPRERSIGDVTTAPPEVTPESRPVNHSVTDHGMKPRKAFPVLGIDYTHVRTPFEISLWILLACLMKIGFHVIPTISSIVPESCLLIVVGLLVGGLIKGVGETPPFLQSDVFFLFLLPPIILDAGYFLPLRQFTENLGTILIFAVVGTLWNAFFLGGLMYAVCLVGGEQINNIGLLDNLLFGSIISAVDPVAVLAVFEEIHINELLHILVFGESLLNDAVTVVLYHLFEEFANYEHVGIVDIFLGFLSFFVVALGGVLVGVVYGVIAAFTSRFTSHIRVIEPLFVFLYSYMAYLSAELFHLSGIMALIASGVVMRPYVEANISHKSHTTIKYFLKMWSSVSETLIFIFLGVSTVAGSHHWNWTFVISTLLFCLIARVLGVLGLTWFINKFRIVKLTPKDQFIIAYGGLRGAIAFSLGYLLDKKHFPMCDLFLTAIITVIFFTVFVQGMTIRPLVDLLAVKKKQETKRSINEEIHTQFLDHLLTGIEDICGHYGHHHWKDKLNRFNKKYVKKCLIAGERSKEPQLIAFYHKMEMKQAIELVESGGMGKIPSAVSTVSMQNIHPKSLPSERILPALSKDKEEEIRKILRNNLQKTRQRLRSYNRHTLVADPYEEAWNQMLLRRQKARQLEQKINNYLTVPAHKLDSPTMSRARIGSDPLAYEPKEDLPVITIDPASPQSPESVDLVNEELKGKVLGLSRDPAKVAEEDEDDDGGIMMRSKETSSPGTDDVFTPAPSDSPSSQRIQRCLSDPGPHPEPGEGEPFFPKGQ
T2 sequence (Q8IVB4 whole entry): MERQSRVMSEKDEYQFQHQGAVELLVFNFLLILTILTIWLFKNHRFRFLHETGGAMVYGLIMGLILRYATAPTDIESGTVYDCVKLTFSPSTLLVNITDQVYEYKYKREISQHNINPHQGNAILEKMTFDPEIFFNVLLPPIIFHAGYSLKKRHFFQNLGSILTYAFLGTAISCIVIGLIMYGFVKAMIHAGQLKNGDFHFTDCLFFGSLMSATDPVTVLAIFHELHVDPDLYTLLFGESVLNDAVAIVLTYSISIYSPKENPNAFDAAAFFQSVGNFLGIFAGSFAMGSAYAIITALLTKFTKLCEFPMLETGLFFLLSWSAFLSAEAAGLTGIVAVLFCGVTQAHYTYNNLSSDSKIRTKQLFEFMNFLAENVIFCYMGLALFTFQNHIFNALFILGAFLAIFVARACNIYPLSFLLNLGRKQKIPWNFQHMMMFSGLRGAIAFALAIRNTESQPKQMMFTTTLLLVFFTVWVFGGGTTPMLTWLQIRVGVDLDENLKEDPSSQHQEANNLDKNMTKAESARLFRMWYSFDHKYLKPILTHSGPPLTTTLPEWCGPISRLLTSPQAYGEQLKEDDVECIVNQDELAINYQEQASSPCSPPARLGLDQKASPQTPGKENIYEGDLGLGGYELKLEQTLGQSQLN

time within which degradation of SLC9A1 was observed (SLC9A1; HAP1 and KBM7 cells, different concentrations): ≤ 8 h
SLC9A1 degradation, dose curve (SLC9A1; HAP1 cells, 24 hours): most effective
SLC9A1 degradation in WT and CRBN knockout cells (SLC9A1; KBM7 WT and CRBN knockout, 1 µM, 16 hours): observed in WT but not CRBN knockout
abundance of exogenous SLC9A9 (Strep/HA SLC9A9): not significantly affected
Compound: Cc1cc(-c2ccc(C(=O)NCCOCCOCCOCCOCCNc3cccc4c3C(=O)N(C3CCC(=O)NC3=O)C4=O)cc2N2CCC(c3[nH]cnc3C)CC2)ccc1F (stereo not drawn) [d9A1-2]
degradation of endogenous SLC9A1 (SLC9A1; HAP1 and KBM7 cells): degradation of endogenous SLC9A1 at sub-micromolar concentration
SLC9A1 expression, time course (SLC9A1; KBM7 cells, varying concentrations, 5, 7, 9 or 12 hours): Reduction of SLC9A1 expression was observed
